Target: T1, Protease (Purafect Prime®) (Bacillus amyloliquefaciens, UniProt P00782, Y324L)
T1 construct: purchased Genencor International, Palo Alto Purafect Prime®
Test: Stability of Protease in amine neutralized-anionic surfactant-containing detergent (Example 10) after incubation
Format: physicochemical
Settings: Detergent example 10, pH 8.2, 3 weeks and 6 weeks 30° C., versus a nil PBA reference
Description: Test of stability of Protease in an Amine Neutralized-Anionic Surfactant-Containing Detergent after Incubation in Detergent, Example 10, at pH 8.2
A detergent composition, example 10, nil enzyme, nil calcium chloride dihydrate and nil phenylboronic acid (PBA), balanced to pH 8.2 using monoethanolamine, was prepared.
The protease, that sold under the trade name of Purafect Prime®, by Genencor International, Palo Alto (38.7 mg active Protease protein in 100 g detergent), was added to the above detergent. Each detergent sample was determined for the initial residual enzyme activity before incubation (Initial reference samples).
The residual enzyme activity for each sample was determined after incubation at 30° C. for 3 weeks and 6 weeks and compared to their reference sample. The residual activity was determined using the standard enzyme activity assays for the relevant enzyme.
Detergent formulations A-D, 5 g pH 8.2, were placed in duplicate into a 7 ml glass vial with an air tight lid. The residual enzyme activity was determined for the initial samples, in duplicate, before incubation.
The samples were placed into an incubator for 3 weeks and 6 weeks at 30° C. Immediately after incubation, the samples were analysed for both residual Protease. In this test the residual activity of 100% equals no loss of Protease activity compared to initial residual enzyme activity before incubation.

T1 sequence (P00782 108-382 Y324L): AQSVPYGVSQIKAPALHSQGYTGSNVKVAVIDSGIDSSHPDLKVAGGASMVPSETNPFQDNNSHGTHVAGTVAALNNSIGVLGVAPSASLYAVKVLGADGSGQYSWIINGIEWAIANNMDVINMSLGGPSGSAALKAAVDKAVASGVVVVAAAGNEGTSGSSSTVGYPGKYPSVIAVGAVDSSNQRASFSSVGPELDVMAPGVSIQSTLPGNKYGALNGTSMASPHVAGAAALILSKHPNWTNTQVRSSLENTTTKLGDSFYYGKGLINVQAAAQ

SMILES: OB(O)c1ccccc1 [PBA, phenylboronic acid]
- Effect of PBA addition on stability of the Protease: significantly improves stability of the Protease
